These results are taken from ChEMBL document CHEMBL4483862, “Open-source discovery of chemical leads for next-generation chemoprotective antimalarials” (2018).

The test deals with Plasmodium berghei. The test is described as follows: Luciferase/luciferin-expressing antifolate-resistant parasites were used to infect a culture of HepG2 cells that were pre-incubated with compounds. Infected hepatocytes emit light due to the luciferase reaction. Assay results are presented as the percent inhibition of light emission compared to control. […]. The following applies: sporozoite; for IC90: read-out: LUCIFERASE INFECTION ASSAY - IC90. The class given is functional.

[1] abbreviates: read-out: LUCIFERASE INFECTION ASSAY - IC50.

The IC50 is the midpoint of a concentration-inhibition curve. Broadly, the IC90 is the point of the concentration-response curve where the effect stands at 90%. Consider `CCN(CC)S(=O)(=O)c1ccc(C(=O)Nc2ccc(C34CC5CC(CC(O)(C5)C3)C4)cc2)cc1`, for which the IC90 is above 10 µM. In addition, under setting [1], the IC50 is above 10 µM.
In the case of `CCCN1CCc2c(sc3c2c(NCCc2ccccc2)nc2nnnn23)C1`, the IC90 was above 8.39 µM. For the same molecule, the IC50 under setting [1] was above 8.39 µM.
Consider `CCC(C)(C)c1ccc(Oc2ccc(NC(=O)Nc3ccccc3OC)cc2)cc1`, for which the IC90 came out at 5.8 µM. Moreover, where the note is “HEPG2TOX_HILL_SLOPE 7.52, 1.98, HEPG2TOX_R_SQUARED 0.307, 0.635, PBLUC_HILL_SLOPE 2.78, 0.762, PBLUC_R_SQUARED 0.525, 0.659, read-out: LUCIFERASE INFECTION ASSAY - IC50”, the IC50 was 1.08 µM.
Turning to `O=C(CN1CCN(C/C=C/c2ccccc2)CC1)NC(c1ccccc1)c1ccccc1`, the IC90 was above 10 µM. Further, under setting [1], the IC50 is above 10 µM.
Consider `C=C(C)COc1ccc(-c2[nH]nc(C)c2-c2ccc(OC)c(OC)c2)c(O)c1`, for which the IC90 amounted to 1.84 µM. Under “HEPG2TOX_HILL_SLOPE 1.51, HEPG2TOX_R_SQUARED 0.867, PBLUC_HILL_SLOPE 1.78, PBLUC_R_SQUARED 0.654, read-out: LUCIFERASE INFECTION ASSAY - IC50”, the IC50 was 0.535 µM.
With `Cc1ccc(NC(=O)Nc2ccc3nc(Cc4ccccc4)nn3c2)cc1`, the IC90 is 2.11 µM. For the same molecule, for the setting “HEPG2TOX_HILL_SLOPE 3.07, HEPG2TOX_R_SQUARED 0.95, PBLUC_HILL_SLOPE 55.2, PBLUC_R_SQUARED 0.375, read-out: LUCIFERASE INFECTION ASSAY - IC50”, the IC50 amounted to 2.02 µM.
For `O=S(=O)(/C=C/c1ccccc1)N1CCCC(c2nc3ccccc3s2)C1` (stereo not given), the 90% effect concentration (IC90) was above 10 µM. Also, the IC50 (PBLUC_HILL_SLOPE 2.87, PBLUC_R_SQUARED 0.652, read-out: LUCIFERASE INFECTION ASSAY - IC50) is above 10 µM.
Regarding `Nc1nc2ccc(C(=O)N3CCN(C/C=C/c4ccccc4)CC3)cc2s1`, the IC90 was above 10 µM. Also, the IC50 (HEPG2TOX_HILL_SLOPE 1.29, HEPG2TOX_R_SQUARED 0.665, PBLUC_HILL_SLOPE 22.8, PBLUC_R_SQUARED 0.0313, read-out: LUCIFERASE INFECTION ASSAY - IC50) was above 10 µM.
`CCCCNc1nc2ccccc2n1CC(=O)Nc1ccc(S(=O)(=O)N2CCCC2)cc1`: the IC90 was above 10 µM. The IC50 (PBLUC_HILL_SLOPE 1.82, PBLUC_R_SQUARED 0.488, read-out: LUCIFERASE INFECTION ASSAY - IC50) amounted to 3.67 µM.
For `COc1ccc(CCC(=O)NCc2cc(=O)n(C)c(=O)n2C)cc1`, the IC90 is above 9.96 µM. Also, the IC50 under setting [1] was above 9.96 µM.
On to `Oc1c(C(Nc2ccccn2)c2ccc(Cl)cc2Cl)ccc2cccnc12` (stereo not given), for which the IC90 was found to be 5.13 µM. Also, the IC50 (FFLUC_HILL_SLOPE 3.3, FFLUC_R_SQUARED 0.0348, HEPG2TOX_HILL_SLOPE 1.34, HEPG2TOX_R_SQUARED 0.812, PBLUC_HILL_SLOPE 6.8, PBLUC_R_SQUARED 0.449, read-out: LUCIFERASE INFECTION ASSAY - IC50) was determined as 3.71 µM.
In the case of `O=C(CN1CCC(C(=O)Nc2ccccc2O)CC1)Nc1nc(-c2cccc([N+](=O)[O-])c2)cs1`, the IC90 is above 10 µM. Further, under “PBLUC_HILL_SLOPE 3.03, PBLUC_R_SQUARED 0.0575, read-out: LUCIFERASE INFECTION ASSAY - IC50”, the IC50 is 6.47 µM.
Turning to `CC1CCC(C(C)C)C(OCC(O)CN2C(C)CCCC2C)C1` (stereo not given), the IC90 was above 9.12 µM. Moreover, the IC50 under setting [1] is above 9.12 µM.
With `Cc1ccc(C2=NNC(=NC3CC3)SC2)cc1`, the IC90 was above 10 µM. The IC50 under setting [1] was 1.46 µM.
Take `N#CC1C(=N)Oc2c3c(c4ccccc4c2C1c1ccc(Cl)cc1)C(c1ccc(Cl)cc1)C(C#N)C(=N)O3` (stereo not given): the IC90 is above 6.14 µM. In addition, where the note is “FFLUC_HILL_SLOPE 2.7, FFLUC_R_SQUARED 0.81, HEPG2TOX_HILL_SLOPE 15, HEPG2TOX_R_SQUARED 0.458, PBLUC_HILL_SLOPE 19.3, PBLUC_R_SQUARED 0.191, read-out: LUCIFERASE INFECTION ASSAY - IC50”, the IC50 was found to be 5.72 µM.
For `CCNC(=O)C1CCCN(Cc2ccc3ccccc3c2Br)CC1` (stereo not given), the IC90 worked out at 3.91 µM. For the same molecule, the IC50 (PBLUC_HILL_SLOPE 11.4, PBLUC_R_SQUARED 0.606, read-out: LUCIFERASE INFECTION ASSAY - IC50) stood at 3.23 µM.
Take `CCOC(=O)c1sc(N)c(C#N)c1CSc1nnc(-c2ccc(OC)c(OC)c2)o1`: the IC90 was 9.92 µM. Besides, the IC50 (HEPG2TOX_HILL_SLOPE 2.07, 4.99, HEPG2TOX_R_SQUARED 0.833, 0.121, PBLUC_HILL_SLOPE 3.67, 1.56, PBLUC_R_SQUARED 0.0908, 0.540, read-out: LUCIFERASE INFECTION ASSAY - IC50) turned out to be 4.06 µM.
Regarding `CN(/N=C/c1cc(Cl)cc(Cl)c1O)c1ccc([N+](=O)[O-])cn1`, the IC90 was above 9.67 µM. The IC50 (FFLUC_HILL_SLOPE 1.05, FFLUC_R_SQUARED 0.5, read-out: LUCIFERASE INFECTION ASSAY - IC50) is above 9.67 µM.
Turning to `COc1ccc(C(C)=O)cc1COc1cccc(C(=O)NCc2ccccc2)c1`, the IC90 was determined as 9.35 µM. Moreover, where the note is “HEPG2TOX_HILL_SLOPE 15.6, HEPG2TOX_R_SQUARED 0.727, PBLUC_HILL_SLOPE 15.6, PBLUC_R_SQUARED 0.0647, read-out: LUCIFERASE INFECTION ASSAY - IC50”, the IC50 turned out to be 8.12 µM.
On to `Cc1csc(-c2nc(-c3ccc(C(C)(C)C)cc3)no2)c1`, for which the IC90 is above 11.1 µM. Also, the half-maximal inhibitory concentration (IC50) under setting [1] is above 11.1 µM.
Regarding `Oc1c(Cl)cc(Cl)cc1/C=N/NC(=S)NC1CCCC1`, the IC90 amounted to 3.83 µM. The IC50 (HEPG2TOX_HILL_SLOPE 9.72, HEPG2TOX_R_SQUARED 0.599, PBLUC_HILL_SLOPE 20.7, PBLUC_R_SQUARED 0.654, read-out: LUCIFERASE INFECTION ASSAY - IC50) was 3.45 µM.
For `CCOc1ccc(/C=C2\CCCC3C2=NN(C(=O)C2(S(=O)(=O)c4ccccc4)CC2)C3c2ccc(OCC)cc2)cc1` (stereo not given), the IC90 was above 10 µM. In addition, the IC50 under setting [1] was determined as 5.63 µM.
On the same counts, the results for `Cc1cc(C(=O)Cn2cnc3ccc([N+](=O)[O-])cc3c2=O)c(C)n1CC1COc2ccccc2O1` (stereo not given) are above 10 µM and above 10 µM.
Take `Cc1noc(C)c1S(=O)(=O)N(C)Cc1ccc(-c2ccc(Cl)cc2)o1`: the IC90 was above 10 µM. Under setting [1], the IC50 was above 10 µM.
For the molecule `CCOC(=O)c1c(Sc2ccccc2)cnn1C(=O)Nc1cccc(Cl)c1`, the IC90 is above 8.21 µM. In addition, the half-maximal inhibitory concentration (IC50) (PBLUC_HILL_SLOPE 0.46, PBLUC_R_SQUARED 0.851, read-out: LUCIFERASE INFECTION ASSAY - IC50) was above 8.21 µM.
With `O=C(Nc1nc(CN2CCCCC2)cs1)c1ccc2[nH]c3c(c2c1)CCCC3`, the IC90 was above 10 µM. Further, under setting [1], the IC50 is above 10 µM.
For `c1ccc(OCc2nc3ccccc3n2-c2cc(-c3ccccc3)n[nH]2)cc1`, the IC90 is above 10 µM. In addition, under “PBLUC_HILL_SLOPE 0.678, 16.2, PBLUC_R_SQUARED 0.350, 0.0461, read-out: LUCIFERASE INFECTION ASSAY - IC50”, the half-maximal inhibitory concentration (IC50) worked out at 9.43 µM.
`CC(C)(c1ccc(O)cc1)c1ccc(Cl)cc1`: the IC90 was above 10 µM. Under setting [1], the IC50 is above 10 µM.
For `CCCN(CCC)C(=S)NC(=O)c1cccc([N+](=O)[O-])c1`, the IC90 is above 10.7 µM. Where the note is “PBLUC_HILL_SLOPE 0.519, PBLUC_R_SQUARED 0.204, read-out: LUCIFERASE INFECTION ASSAY - IC50”, the IC50 was above 10.7 µM.
Turning to `COc1cc(/C=C(/C(=O)c2cccc(Cl)c2)c2nc3ccccc3[nH]2)ccc1OCc1ccccc1`, the IC90 was above 10 µM. In addition, the IC50 (HEPG2TOX_HILL_SLOPE 8.02, HEPG2TOX_R_SQUARED 0.115, read-out: LUCIFERASE INFECTION ASSAY - IC50) is above 10 µM.
On to `CCN(CC)S(=O)(=O)c1ccc(C(=O)c2c(C)c(C(=O)C(F)(F)F)c3ccccn23)cc1`, for which the IC90 was above 10 µM. Besides, the IC50 under setting [1] was above 10 µM.
For the molecule `CCC1(CC)CC(=O)N(CC(O)COc2ccc(C(C)(C)C)cc2)C1=O` (stereo not given), the IC90 was above 10 µM. Further, the IC50 (PBLUC_HILL_SLOPE 2.11, PBLUC_R_SQUARED 0.442, read-out: LUCIFERASE INFECTION ASSAY - IC50) stood at 5.07 µM.
As to `COc1ccc(-c2cnc3cnc(-c4ccc5c(c4)OCO5)cn23)cc1`, the concentration for an effect of 90% (IC90) is 4.64 µM. The IC50 under setting [1] is 1.78 µM.
In the same order, the values of `CS(=O)(=O)Nc1ccc(S(=O)(=O)NC23CC4CC(CC(C4)C2)C3)cc1` are above 8.58 µM and above 8.58 µM.
In the case of `O=C(c1c[nH]c2ccccc12)C(c1ccccc1)N1CCN(CC(=O)N2CCCC2)CC1` (stereo not given), the IC90 was above 10 µM. In addition, the IC50 (PBLUC_HILL_SLOPE 1.28, PBLUC_R_SQUARED 0.65, read-out: LUCIFERASE INFECTION ASSAY - IC50) was 3.5 µM.
Regarding `C=C(C)C/N=c1\scc(-c2ccccc2F)n1/N=C1\CCCCc2ccccc21`, the IC90 is above 10 µM. Besides, the IC50 under setting [1] was above 10 µM.
For `Cc1[nH]c(-c2ccccn2)nc(=O)c1CC(=O)OCc1nc2ccccc2s1`, the IC90 was above 10 µM. Besides, under “PBLUC_HILL_SLOPE 1.8, PBLUC_R_SQUARED 0.582, read-out: LUCIFERASE INFECTION ASSAY - IC50”, the IC50 came to 7.29 µM.
Regarding `O=C(NC1CCN(c2ccc(S(=O)(=O)C(F)F)cc2)CC1)C1CC1`, the IC90 is above 10 µM. Under “HEPG2TOX_HILL_SLOPE 4.17, HEPG2TOX_R_SQUARED 0.587, PBLUC_HILL_SLOPE 17, PBLUC_R_SQUARED 0.152, read-out: LUCIFERASE INFECTION ASSAY - IC50”, the IC50 turned out to be 8.89 µM.
Regarding `C/C(=N\NC(=S)NCC(C)(C)C)c1cc(F)cc(Cl)c1O`, the IC90 is above 9.94 µM. The IC50 (PBLUC_HILL_SLOPE 12.9, PBLUC_R_SQUARED 0.356, read-out: LUCIFERASE INFECTION ASSAY - IC50) was determined as 9.7 µM.
Take `OCCNc1nc(Oc2ccc(-c3ccccc3)cc2)nc2ccccc12`: the IC90 amounted to 1.97 µM. Besides, the IC50 (PBLUC_HILL_SLOPE 1.95, PBLUC_R_SQUARED 0.572, read-out: LUCIFERASE INFECTION ASSAY - IC50) turned out to be 0.64 µM.
